Laboratory results: patent US7495027B2, “3-aryl-4-hydroxyfuranone compounds and the human and animal health use thereof” (Wyeth, priority 2003, dated 2009)

system: larvae of blowfly, Lucilia sericata; experiment: whole plant or invertebrate; conditions: dose rate of 20 ppm; Lucilia sericata larvae on treated filter paper with bovine serum; assessed at 24 h
Protocol: Comparative Evaluation of the Efficacy of a 3-Aryl-4-hydroxyfuranone Compound Against Blowfly Larvae
In this evaluation, filter paper discs are treated with an acetone solution of test compound and allowed to dry. Bovine serum and newly emerged larvae of blowfly, Lucilia sericata, are added to the treated filter paper. Mortality is assessed at 24 h and 48 h. When more than one evaluation is performed, the data are averaged.

Compound	% Mortality 24 h
O=C1OC(=Cc2ccc(-c3ccccc3CO)cc2)C(O)=C1c1ccccc1CO	0%
O=C1O/C(=C\c2ccc(-c3cccc(CO)c3)cc2)C(O)=C1c1cccc(CO)c1	0%
CC(=O)Nc1cccc(C2=C(O)/C(=C/c3ccc(-c4cccc(NC(C)=O)c4)cc3)OC2=O)c1	0%
O=C1O/C(=C\c2ccc(N3CCN(c4ccccc4Cl)CC3)c(Cl)c2)C(O)=C1c1cc(Cl)cc(Cl)c1	0%
CCOC(=O)N1CCN(c2ccc(/C=C3\OC(=O)C(c4cc(Cl)cc(Cl)c4)=C3O)cc2F)CC1	0%
COc1cc(C=C2OC(=O)C(c3cc(Cl)cc(Cl)c3)=C2O)ccc1-c1cccc(C(F)(F)F)c1	0%
N#Cc1ccc(C2=C(O)/C(=C/c3ccc(-c4ccc(C#N)cc4)cc3)OC2=O)cc1	0%
CC(C)(C)c1ccc(-c2ccc(C3=C(O)C(=Cc4ccc(-c5ccccc5)cc4)OC3=O)cc2)cc1	0%
C=CCOC1=C(c2ccc(Cl)cc2)C(=O)OC1=Cc1ccc(C#N)cc1 (mixture of isomers)	0%
N#Cc1ccc(-c2ccc(C=C3OC(=O)C(c4cccc(C(F)(F)F)c4)=C3O)cc2)cc1 (mixture of isomers)	0%
O=C1OC(=Cc2ccc(-c3ccc(Cl)cc3)cc2)C(O)=C1c1cccc(C(F)(F)F)c1 (mixture of isomers)	0%
N#Cc1cccc(C2=C(O)C(=Cc3ccc(-c4ccc(Cl)cc4)cc3)OC2=O)c1 (mixture of isomers)	0%
N#Cc1ccc(-c2ccc(C=C3OC(=O)C(c4cccc(Cl)c4)=C3O)cc2)cc1 (mixture of isomers)	0%
O=C1OC(=Cc2ccc(-c3ccc(Cl)cc3)cc2)C(O)=C1c1cccc(Cl)c1 (mixture of isomers)	0%
N#Cc1ccc(-c2ccc(C=C3OC(=O)C(c4ccc(C(F)(F)F)cc4)=C3O)cc2)cc1 (mixture of isomers)	0%
O=C1OC(=Cc2ccc(-c3ccc(Cl)cc3)cc2)C(O)=C1c1ccc(C(F)(F)F)cc1 (mixture of isomers)	0%
N#Cc1ccc(C2=C(O)C(=Cc3ccc(-c4ccc(C(F)(F)F)cc4)cc3)OC2=O)cc1 (mixture of isomers)	0%
N#Cc1ccc(C2=C(O)C(=Cc3ccc(-c4ccc(Cl)cc4)cc3)OC2=O)cc1 (mixture of isomers)	0%
O=C1OC(=Cc2ccc(-c3ccc(C(F)(F)F)cc3)cc2)C(O)=C1c1ccc(Cl)cc1 (mixture of isomers)	0%
N#Cc1ccc(-c2ccc(C=C3OC(=O)C(c4ccc(F)cc4)=C3O)cc2)cc1 (mixture of isomers)	0%
O=C1OC(=Cc2ccc(-c3ccc(Cl)cc3)cc2)C(O)=C1c1ccc(F)cc1 (mixture of isomers)	0%
O=C1OC(=Cc2ccc(C(F)(F)F)cc2)C(O)=C1c1ccc(-c2ccc(Cl)cc2)cc1 (mixture of isomers)	0%

same assay, conditions: dose rate of 20 ppm; Lucilia sericata larvae on treated filter paper with bovine serum; assessed at 48 h

Compound	% Mortality 48 h
O=C1OC(=Cc2ccc(-c3ccccc3CO)cc2)C(O)=C1c1ccccc1CO	0%
O=C1O/C(=C\c2ccc(-c3cccc(CO)c3)cc2)C(O)=C1c1cccc(CO)c1	0%
CC(=O)Nc1cccc(C2=C(O)/C(=C/c3ccc(-c4cccc(NC(C)=O)c4)cc3)OC2=O)c1	0%
O=C1O/C(=C\c2ccc(N3CCN(c4ccccc4Cl)CC3)c(Cl)c2)C(O)=C1c1cc(Cl)cc(Cl)c1	0%
CCOC(=O)N1CCN(c2ccc(/C=C3\OC(=O)C(c4cc(Cl)cc(Cl)c4)=C3O)cc2F)CC1	0%
COc1cc(C=C2OC(=O)C(c3cc(Cl)cc(Cl)c3)=C2O)ccc1-c1cccc(C(F)(F)F)c1	0%
N#Cc1ccc(C2=C(O)/C(=C/c3ccc(-c4ccc(C#N)cc4)cc3)OC2=O)cc1	0%
CC(C)(C)c1ccc(-c2ccc(C3=C(O)C(=Cc4ccc(-c5ccccc5)cc4)OC3=O)cc2)cc1	0%
C=CCOC1=C(c2ccc(Cl)cc2)C(=O)OC1=Cc1ccc(C#N)cc1 (mixture of isomers)	0%
N#Cc1ccc(-c2ccc(C=C3OC(=O)C(c4cccc(C(F)(F)F)c4)=C3O)cc2)cc1 (mixture of isomers)	0%
O=C1OC(=Cc2ccc(-c3ccc(Cl)cc3)cc2)C(O)=C1c1cccc(C(F)(F)F)c1 (mixture of isomers)	0%
N#Cc1cccc(C2=C(O)C(=Cc3ccc(-c4ccc(Cl)cc4)cc3)OC2=O)c1 (mixture of isomers)	0%
N#Cc1ccc(-c2ccc(C=C3OC(=O)C(c4cccc(Cl)c4)=C3O)cc2)cc1 (mixture of isomers)	0%
O=C1OC(=Cc2ccc(-c3ccc(Cl)cc3)cc2)C(O)=C1c1cccc(Cl)c1 (mixture of isomers)	0%
N#Cc1ccc(-c2ccc(C=C3OC(=O)C(c4ccc(C(F)(F)F)cc4)=C3O)cc2)cc1 (mixture of isomers)	0%
O=C1OC(=Cc2ccc(-c3ccc(Cl)cc3)cc2)C(O)=C1c1ccc(C(F)(F)F)cc1 (mixture of isomers)	65%
N#Cc1ccc(C2=C(O)C(=Cc3ccc(-c4ccc(C(F)(F)F)cc4)cc3)OC2=O)cc1 (mixture of isomers)	25%
N#Cc1ccc(C2=C(O)C(=Cc3ccc(-c4ccc(Cl)cc4)cc3)OC2=O)cc1 (mixture of isomers)	100%
O=C1OC(=Cc2ccc(-c3ccc(C(F)(F)F)cc3)cc2)C(O)=C1c1ccc(Cl)cc1 (mixture of isomers)	0%
N#Cc1ccc(-c2ccc(C=C3OC(=O)C(c4ccc(F)cc4)=C3O)cc2)cc1 (mixture of isomers)	0%
O=C1OC(=Cc2ccc(-c3ccc(Cl)cc3)cc2)C(O)=C1c1ccc(F)cc1 (mixture of isomers)	0%
O=C1OC(=Cc2ccc(C(F)(F)F)cc2)C(O)=C1c1ccc(-c2ccc(Cl)cc2)cc1 (mixture of isomers)	0%
